The text below walks through data of patent US20120220567A1, “BENZO-FUSED OXAZEPINE COMPOUNDS AS STEAROYL-COENZYME A DELTA-9 DESATURASE INHIBITORS” (priority 2009, published 2012).

Structures are written as SMILES.

The target in the first test is T1, SCD-1 (Homo sapiens, UniProt O00767).
T1 construct: 50 μg of protein from a HepG2 cell P2 pellet; endogenous in cells; host or cells: HepG2 cells (P2 pellet)
T1 sequence (O00767 1-359): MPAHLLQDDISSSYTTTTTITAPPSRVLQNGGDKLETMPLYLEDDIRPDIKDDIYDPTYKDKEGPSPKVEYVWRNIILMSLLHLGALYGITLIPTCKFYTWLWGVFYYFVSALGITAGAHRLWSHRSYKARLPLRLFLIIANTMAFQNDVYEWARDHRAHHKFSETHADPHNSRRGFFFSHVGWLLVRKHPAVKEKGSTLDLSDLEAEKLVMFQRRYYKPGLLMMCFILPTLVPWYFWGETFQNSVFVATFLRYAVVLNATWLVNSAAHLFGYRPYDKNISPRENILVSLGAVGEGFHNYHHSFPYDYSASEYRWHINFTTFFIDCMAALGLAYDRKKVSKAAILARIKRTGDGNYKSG
Description: Stearoyl-CoA desaturase assay (HepG2 cell P2 pellet). The settings on record: Table 1, compounds of formula (Ia); protein from HepG2 cell P2 pellet, 20 μM stearoyl-CoA, 15 min at 25° C.; read-out: Ave IC50. In kind it is biochemical. How it is done:
Stearoyl-CoA desaturase assays were performed in according to Talamo and Bloch. […] Assays were run in triplicate in 100-μl volumes of 100 mM TrisHCl, pH 7.3, containing 20 μM stearoyl-CoA, 2 mM β-NADH, and 50 μg of protein from a HepG2 cell P2 pellet. Since SCD-1 is the only isoform of SCD expressed in these cells, the assay is specific for SCD-1 with these cells as the source of enzyme. Reaction mixtures were incubated fifteen minutes at 25° C. and reactions were then stopped with a volume of trichloroacetic acid giving a final concentration of 0.2%. After five minutes, a 90-μl volume was transferred to a Millipore Multiscreen HTS 96-well filtration plate (MSHVN4B50) containing 125 μl of 10% charcoal in each well, to which vacuum had been previously applied. Plates were shaken fifteen minutes and then filtered into a collection plate. Fifty-μI volumes of filtrate were transferred to another plate containing 150 μl of MicroScint 40 for counting on a TopCount scintillation counter.
What is called IC50 is the midpoint of a concentration-inhibition curve. For `CCc1ccc(CN2CCC3(CCN(C(=O)CNC(=O)CCN(C)C)CC3)Oc3ccccc32)cc1` [Compound 9], the IC50 was over 10000 nM.

In the case of `CC(=O)NCC(=O)N1CCC2(CC1)CCN(Cc1ccc(C)cc1)c1ccccc1O2` [Compound 35], the IC50 was 500 to 10000 nM. `CC(=O)NCC(=O)N1CCC2(CC1)CCN(Cc1cccc(O)c1)c1ccccc1O2` [Compound 32]: the IC50 fell in the range of 500 to 10000 nM. On the same count and under the same terms, the value for `COc1ccc(CN2CCC3(CCN(C(=O)CNC(C)=O)CC3)Oc3ccccc32)cc1F` [Compound 31] was 500 to 10000 nM. Same read-out and setting: the value for `CC(=O)NCC(=O)N1CCC2(CC1)CCN(Cc1ccc(C#N)cc1)c1ccccc1O2` [Compound 21] was 500 to 10000 nM; that for `CCc1ccc(CN2CCC3(CCN(C(=O)CNC(=O)Cc4cn(C)cn4)CC3)Oc3ccccc32)cc1` [Compound 11] was 500 to 10000 nM. For `COc1ccc(CN2CCC3(CCN(C(=O)CNC(C)=O)CC3)Oc3ccccc32)cc1` [Compound 16], the IC50 lay in the range of 500 to 10000 nM. As for `CC(=O)NCC(=O)N1CCC2(CC1)CCN(Cc1ccc(C(C)(C)C)cc1)c1cccc(Cl)c1O2` [Compound 15], the IC50 lay within 500 to 10000 nM. Still for that read-out and setting: the same measure for `CC(=O)NCC(=O)N1CCC2(CC1)CCN(Cc1ccc(C)s1)c1ccccc1O2` [Compound 20]: over 10000 nM; for `CC(=O)NCC(=O)N1CCC2(CC1)CCN(Cc1cccc(Cl)c1)c1ccccc1O2` [Compound 26]: 500 to 10000 nM. Still for that read-out and setting: the same measure for `CC(=O)NCC(=O)N1CCC2(CC1)CCN(Cc1ccccc1)c1ccccc1O2` [Compound 30]: 500 to 10000 nM.

Still in this test, the particulars now being: Table 2, compounds of formula (Ib); protein from HepG2 cell P2 pellet, 20 μM stearoyl-CoA, 15 min at 25° C.; read-out: Ave IC50.
As for `CC(C)(C)c1ccc(CN2CCC3(CCN(c4ncc(C(=O)Nc5ccccc5)s4)CC3)Oc3ccccc32)cc1` [Compound 71], the IC50 was over 10000 nM. The same measure, in the same setting: the value for `Cn1cncc1CNC(=O)c1cnc(N2CCC3(CC2)CCN(Cc2ccc(C(C)(C)C)cc2)c2cccc(F)c2O3)s1` [Compound 121] was over 10000 nM. Consider `Cc1cnc(CNC(=O)c2cnc(N3CCC4(CC3)CCN(Cc3ccc(C(C)(C)C)cc3)c3cccc(F)c3O4)s2)cn1` [Compound 112], for which the IC50 was in the range of 500 to 10000 nM.

In the case of `CC(C)(C)c1ccc(CN2CCC3(CCN(c4ncc(C(=O)NCCCn5ccnn5)s4)CC3)Oc3c(F)cccc32)cc1` [Compound 86], the IC50 lay within 500 to 10000 nM. Still for that read-out and setting: the same measure for `CN(C)CCNC(=O)c1cnc(N2CCC3(CC2)CCN(Cc2ccc(C(C)(C)C)cc2)c2cccc(F)c2O3)s1` [Compound 105]: over 10000 nM; for `O=C(O)c1cnc(N2CCC3(CC2)CCN(Cc2cccc(C(F)(F)F)c2)c2ccccc2O3)s1` [Compound 54, 2-(5-(3-(trifluoromethyl)benzyl)-4,5-dihydro-3H-spiro[benzo[b][1,4]oxazepine-2,4′-piperidine]-1′-yl)thiazole-5-carboxylic Acid]: 0.5 to 49 nM; for `CC(C)(C)OC(=O)CCNC(=O)c1cnc(N2CCC3(CC2)CCN(Cc2ccc(C(C)(C)C)cc2)c2ccccc2O3)s1` [Compound 125]: 500 to 10000 nM.

On to `O=C(NC[C@H](O)CO)c1cnc(N2CCC3(CC2)CCN(Cc2cccc(C(F)(F)F)c2)c2ccccc2O3)s1` [Compound 61], for which the IC50 is 0.5 to 49 nM.

In the case of `COCCNC(=O)c1cnc(N2CCC3(CC2)CCN(Cc2ccc(C(C)(C)C)cc2)c2cccc(F)c2O3)s1` [Compound 103], the IC50 lay in the range of 50 to 499 nM. For `CNC(=O)c1cnc(N2CCC3(CC2)CCN(Cc2ccc(C(C)(C)C)cc2)c2ccccc2O3)s1` [Compound 70], the IC50 was 0.5 to 49 nM. For `O=C(O)CCNC(=O)c1cnc(N2CCC3(CC2)CCN(Cc2cccc(C(F)(F)F)c2)c2cccc(F)c2O3)s1` [Compound 133], the IC50 was 0.5 to 49 nM. As to `CC(C)(C)CCNC(=O)c1cnc(N2CCC3(CC2)CCN(Cc2ccc(C(C)(C)C)cc2)c2cccc(F)c2O3)s1` [Compound 122], the IC50 was over 10000 nM. For the molecule `CC(C)(C)c1ccc(CN2CCC3(CCN(c4ncc(-c5ccccc5)s4)CC3)Oc3ccccc32)cc1` [Compound 138], the IC50 was in the range of 500 to 10000 nM. Still for that read-out and setting: the same measure for `CC(C)(C)c1ccc(CN2CCC3(CCN(c4ncc(C(=O)NCCn5ccnc5)s4)CC3)Oc3c(F)cccc32)cc1` [Compound 119]: over 10000 nM.

As to `CC(C)(C)OC(=O)CCNC(=O)c1cnc(N2CCC3(CC2)CCN(Cc2cccc(C(F)(F)F)c2)c2ccccc2O3)s1` [Compound 60], the IC50 was in the range of 50 to 499 nM. In the case of `CC(C)(C)c1ccc(CN2CCC3(CCN(c4ncc(C(=O)NCCC(=O)O)s4)CC3)Oc3ccccc32)cc1` [Compound 130], the IC50 was in the range of 0.5 to 49 nM. With `CC(C)(C)c1ccc(CN2CCC3(CCN(c4ncc(C(=O)NCCN5CCCC5)s4)CC3)Oc3c(F)cccc32)cc1` [Compound 101], the IC50 is 500 to 10000 nM. Same read-out and setting: the same measure for `CC(C)(C)c1ccc(CN2CCC3(CCN(c4ncc(C(=O)NC[C@@H](O)CO)s4)CC3)Oc3c(F)cccc32)cc1` [Compound 95]: 50 to 499 nM; for `Cc1n[nH]c(C)c1CCNC(=O)c1cnc(N2CCC3(CC2)CCN(Cc2ccc(C(C)(C)C)cc2)c2cccc(F)c2O3)s1` [Compound 100]: over 10000 nM. For the molecule `CC(C)(C)c1ccc(CN2CCC3(CCN(c4ncc(C(=O)NCCc5ccsc5)s4)CC3)Oc3c(F)cccc32)cc1` [Compound 92], the IC50 fell in the range of 500 to 10000 nM. The same measure, in the same setting: the same measure for `CC(C)(C)c1ccc(CN2CCC3(CCN(c4ncc(C(=O)NCC(F)(F)F)s4)CC3)Oc3c(F)cccc32)cc1` [Compound 98]: 50 to 499 nM; for `CC(C)(C)c1ccc(CN2CCC3(CCN(c4ncc(C(=O)NCCN5CCNC5=O)s4)CC3)Oc3c(F)cccc32)cc1` [Compound 113]: 500 to 10000 nM; for `CC(C)(C)c1ccc(CN2CCC3(CCN(c4ncc(C(=O)NC[C@H]5CC[C@H](O)C5)s4)CC3)Oc3c(F)cccc32)cc1` [Compound 82]: over 10000 nM.

On to `N#Cc1cnc(N2CCC3(CC2)CCN(Cc2cccc(C(F)(F)F)c2)c2ccccc2O3)s1` [Compound 127], for which the IC50 was in the range of 0.5 to 49 nM. For the molecule `COC(=O)CCNC(=O)c1cnc(N2CCC3(CC2)CCN(Cc2ccc(C(C)(C)C)cc2)c2ccccc2O3)s1` [Compound 69], the IC50 was in the range of 0.5 to 49 nM. The same measure, in the same setting: the value for `O=C(O)CNC(=O)c1cnc(N2CCC3(CC2)CCN(Cc2cccc(C(F)(F)F)c2)c2ccccc2O3)s1` [Compound 136] was 0.5 to 49 nM. Same read-out and setting: the same measure for `CC(C)(C)c1ccc(CN2CCC3(CCN(c4ncc(C(=O)NC[C@H](O)c5ccccc5)s4)CC3)Oc3c(F)cccc32)cc1` [Compound 99]: 500 to 10000 nM; for `CC(C)(C)c1ccc(CN2CCC3(CCN(c4ncc(C(=O)NCC(O)c5ccccn5)s4)CC3)Oc3c(F)cccc32)cc1` (centres unmarked) [Compound 118]: 50 to 499 nM.

Still in this test, the particulars now being: Table 3, compounds of formula (Ic); protein from HepG2 cell P2 pellet, 20 μM stearoyl-CoA, 15 min at 25° C.; read-out: Ave IC50.
As for `CC(C)Oc1ccc(CN2CCC3(CCN(c4ccc(C(=O)NCCC5CC5)nn4)CC3)Oc3ccccc32)cc1` [Compound 178], the IC50 is 0.5 to 49 nM. Still for that read-out and setting: the same measure for `O=C(NCCc1ccccc1)c1ccc(N2CCC3(CC2)CCN(Cc2cccc(C(F)(F)F)c2)c2ccccc2O3)nn1` [Compound 155]: 0.5 to 49 nM; for `O=C(NCC1CC1)c1ccc(N2CCC3(CC2)CCN(Cc2cccc(C(F)(F)F)c2)c2ccccc2O3)nn1` [Compound 168]: 50 to 499 nM. Turning to `COC(=O)CCNC(=O)c1ccc(N2CCC3(CC2)CCN(Cc2cccc(C(F)(F)F)c2)c2cccc(F)c2O3)nn1` [Compound 173], the IC50 is 0.5 to 49 nM. Same read-out and setting: the same measure for `CC(C)c1ccc(CN2CCC3(CCN(c4ccc(C(N)=O)nn4)CC3)Oc3ccccc32)cc1` [Compound 182]: 0.5 to 49 nM; for `CCNC(=O)c1ccc(N2CCC3(CC2)CCN(Cc2cccc(C(F)(F)F)c2)c2ccccc2O3)nn1` [Compound 167]: 50 to 499 nM; for `O=C(NCCc1ccncc1)c1ccc(N2CCC3(CC2)CCN(Cc2cccc(C(F)(F)F)c2)c2cccc(F)c2O3)nn1` [Compound 174]: 0.5 to 49 nM.

Consider `COC(=O)c1ccc(N2CCC3(CC2)CCN(Cc2cccc(C(F)(F)F)c2)c2ccccc2O3)nn1` [Compound 170, methyl 6-(5-(3-(trifluoromethyl)benzyl)-4,5-dihydro-3H-spiro-[benzo[b][1,4]oxazepine-2,4′-piperidine]-1′-yl)pyridazine-3-carboxylate], for which the IC50 is 0.5 to 49 nM. For the molecule `CCCNC(=O)c1ccc(N2CCC3(CC2)CCN(Cc2cccc(C(F)(F)F)c2)c2ccccc2O3)nn1` [Compound 157], the IC50 lay within 50 to 499 nM. Turning to `CN(C)CCNC(=O)c1ccc(N2CCC3(CC2)CCN(Cc2cccc(C(F)(F)F)c2)c2ccccc2O3)nn1` [Compound 154], the IC50 fell in the range of 500 to 10000 nM. Still for that read-out and setting: the same measure for `O=C(NCCC1CC1)c1ccc(N2CCC3(CC2)CCN(Cc2cccc(C(F)(F)F)c2)c2ccccc2O3)cc1` [Compound 171]: 500 to 10000 nM.
